In US6399745B1, “Use of leptin antagonists for treating insulin resistance in type II diabetes” (Aventis Pharma Deutschland GmbH, priority 1996, dated 2002):

Test system: isolated rat adipocytes
Test: Glucose transport (2-deoxyglucose uptake) in isolated rat adipocytes after primary culture with leptin, basal and insulin-stimulated
Type: cell-based
Settings: for Glucose Transport, stimulation factor for insulin (stimulated/basal): Insulin concentration: 5 nM
Experimental: Adipocytes were prepared from the epididymal fat tissue of male Wistar rats (140-160 g, Hoechst AG breeding station, Kastengrund) by means of digesting with collagenase (Rodbell, 1964, J. Biol. Chem. 239, 375-380), washed twice with KRH (25 mM Hepes free acid, 25 mM Hepes sodium salt, 80 mM NaCl, 1 mM MgSO4, 2 mM CaCl2, 6 mM KCl, 1 mM sodium pyruvate, 0.5% BSA) and once with DMEM (Dulbecco's minimal essential medium), supplemented with 5.5 mM glucose, 20 mM Hepes (pH 7.4), 2% fetal calf serum, 1% BSA, 50 U of penicillin/ml, […], by means of flotation (800×g, 1 min, in small plastic tubes), and finally diluted to a volume of 20 ml of DMEM/g wet weight of the fat tissue (cell titer: approximately 2.5×10^5 cells/ml).
The adipocytes were incubated, at 37° C. for 15-18 h under an atmosphere of 5% CO2 and with gentle shaking, in supplemented (see above) DMEM in the presence of 100 nM phenylisopropyladenosine (4 ml of DMEM to 1 ml of cells, cell titer approximately 5×10^4 cell/ml, in 50 ml sterile polypropylene: tubes) and in the presence or absence of leptin. The adipocytes were subsequently washed three times with cold KRH and adjusted to a cell titer of approximately 3×10^5 cells/ml by adding 0.7 ml of glucose-free KRH to the cell layer which remained after the complete removal of the last washing solution. In order to determine the capacity of the adipocytes to be stimulated by insulin, and their sensitivity to insulin, following the primary culture, the washed adipocytes were incubated at 37° C. for 20 min in the absence or presence of human insulin (0.02-50 nM final concentration), and glucose transport or lipogenesis was then measured.
Glucose transport was measured as the specific uptake of the non-metabolizable glucose analog 2-deoxyglucose (Muller and Wied, 1993, Diabetes 42, 1852-1867). 50 μl of the adipocyte suspension in KRH, which suspension had or had not been preincubated with insulin (see above), were incubated, at 25° C. for 5 min, with 50 μl of KRH which was supplemented with 2-deoxy-D-[2,6-^3H]glucose (0.5 μCi, 0.2 mM). The incubation mixtures were transferred to thin soft-plastic centrifuge tubes, each of which already contained 200 μl of dinonyl phthalate oil, and immediately centrifuged (2,000×g, 30 sec). Using special shears, the tubes were severed within the oil layer (in the vicinity of the upper edge) and the upper halves of the tubes, together with the cell layers which had in each case been floated onto the oil layer, were transferred to scintillation vials. After 10 ml of scintillation fluid (water-based) had been added, the radioactivity associated with the cells was measured. In order to correct for 2-deoxyglucose which had become enclosed in the cell interstices, or had diffused into the cells, in a non-specific manner, the radioactivity of cells which had been preincubated with cytochalasin B (20 μM) was subtracted from the total cell-associated radioactivity of each individual incubation mixture (Gliemann et al., 1972, Biochim. Biophys. Acta 286, 1-9).
Isolated rat adipocytes were incubated for 15 h in primary culture in the presence or absence of increasing concentrations of leptin. […] The stimulation factor for insulin was calculated as the ratio between insulin-stimulated and basal activities. Each value represents the mean from two independent adipocyte cultures with activity being determined two or three times in each case.
The cells were then washed and tested for the stimulation of glucose transport by differing concentrations of insulin. Glucose transport activity is given as a “dpm value” of the 2deoxy-[^3H]glucose which is specifically associated with the cells. Each value represents the mean from two independent adipocyte cultures with the activity being determined four times in each case.

Leptin
leptin concentration at which effects can already be detected in vitro (insulin dose/effect curves at different leptin concentrations): 0.5 to 1 nM | glucose transport, uptake of 3H-labeled 2-deoxyglucose (leptin 0.05 nM 16.5 h, insulin 0.02 nM): 735 dpm | glucose transport, uptake of 3H-labeled 2-deoxyglucose (leptin 0.05 nM 16.5 h, insulin 0.05 nM): 1025 dpm | glucose transport, uptake of 3H-labeled 2-deoxyglucose (leptin 0.05 nM 16.5 h, insulin 0.1 nM): 1674 dpm | glucose transport, uptake of 3H-labeled 2-deoxyglucose (leptin 0.05 nM 16.5 h, insulin 0.2 nM): 3320 dpm | glucose transport, uptake of 3H-labeled 2-deoxyglucose (leptin 0.05 nM 16.5 h, insulin 0.5 nM): 5138 dpm | glucose transport, uptake of 3H-labeled 2-deoxyglucose (leptin 0.05 nM 16.5 h, insulin 1 nM): 6834 dpm | glucose transport, uptake of 3H-labeled 2-deoxyglucose (leptin 0.05 nM 16.5 h, insulin 2 nM): 7942 dpm | glucose transport, uptake of 3H-labeled 2-deoxyglucose (leptin 0.05 nM 16.5 h, insulin 5 nM): 8794 dpm | glucose transport, uptake of 3H-labeled 2-deoxyglucose (leptin 0.05 nM 16.5 h, insulin 10 nM): 9134 dpm | glucose transport, uptake of 3H-labeled 2-deoxyglucose (leptin 0.05 nM 16.5 h, insulin 50 nM): 9189 dpm | glucose transport, uptake of 3H-labeled 2-deoxyglucose (leptin 0.05 nM 16.5 h, no insulin (basal)): 654 dpm | Glucose Transport, stimulation factor for insulin (stimulated/basal) (leptin 0.3 nM 15 h): 13.4 | Glucose Transport, stimulation factor for insulin (stimulated/basal) (leptin 1 nM 15 h): 11.75 | glucose transport, uptake of 3H-labeled 2-deoxyglucose (leptin 1 nM 16.5 h, insulin 0.02 nM): 678 dpm | glucose transport, uptake of 3H-labeled 2-deoxyglucose (leptin 1 nM 16.5 h, insulin 0.05 nM): 824 dpm | glucose transport, uptake of 3H-labeled 2-deoxyglucose (leptin 1 nM 16.5 h, insulin 0.1 nM): 1189 dpm | glucose transport, uptake of 3H-labeled 2-deoxyglucose (leptin 1 nM 16.5 h, insulin 0.2 nM): 1587 dpm | glucose transport, uptake of 3H-labeled 2-deoxyglucose (leptin 1 nM 16.5 h, insulin 0.5 nM): 2180 dpm | glucose transport, uptake of 3H-labeled 2-deoxyglucose (leptin 1 nM 16.5 h, insulin 1 nM): 3904 dpm | glucose transport, uptake of 3H-labeled 2-deoxyglucose (leptin 1 nM 16.5 h, insulin 2 nM): 5510 dpm | glucose transport, uptake of 3H-labeled 2-deoxyglucose (leptin 1 nM 16.5 h, insulin 5 nM): 6985 dpm | glucose transport, uptake of 3H-labeled 2-deoxyglucose (leptin 1 nM 16.5 h, insulin 10 nM): 8241 dpm | glucose transport, uptake of 3H-labeled 2-deoxyglucose (leptin 1 nM 16.5 h, insulin 50 nM): 8932 dpm | glucose transport, uptake of 3H-labeled 2-deoxyglucose (leptin 1 nM 16.5 h, no insulin (basal)): 634 dpm | glucose transport, uptake of 3H-labeled 2-deoxyglucose (leptin 2 nM 16.5 h, insulin 0.02 nM): 704 dpm | glucose transport, uptake of 3H-labeled 2-deoxyglucose (leptin 2 nM 16.5 h, insulin 0.05 nM): 755 dpm | glucose transport, uptake of 3H-labeled 2-deoxyglucose (leptin 2 nM 16.5 h, insulin 0.1 nM): 860 dpm | glucose transport, uptake of 3H-labeled 2-deoxyglucose (leptin 2 nM 16.5 h, insulin 0.2 nM): 1006 dpm | glucose transport, uptake of 3H-labeled 2-deoxyglucose (leptin 2 nM 16.5 h, insulin 0.5 nM): 1377 dpm | glucose transport, uptake of 3H-labeled 2-deoxyglucose (leptin 2 nM 16.5 h, insulin 1 nM): 1916 dpm | glucose transport, uptake of 3H-labeled 2-deoxyglucose (leptin 2 nM 16.5 h, insulin 2 nM): 2680 dpm | glucose transport, uptake of 3H-labeled 2-deoxyglucose (leptin 2 nM 16.5 h, insulin 5 nM): 4323 dpm | glucose transport, uptake of 3H-labeled 2-deoxyglucose (leptin 2 nM 16.5 h, insulin 10 nM): 6107 dpm | glucose transport, uptake of 3H-labeled 2-deoxyglucose (leptin 2 nM 16.5 h, insulin 50 nM): 7032 dpm | glucose transport, uptake of 3H-labeled 2-deoxyglucose (leptin 2 nM 16.5 h, no insulin (basal)): 688 dpm | Glucose Transport, stimulation factor for insulin (stimulated/basal) (leptin 3 nM 15 h): 7.4 | glucose transport, uptake of 3H-labeled 2-deoxyglucose (leptin 5 nM 16.5 h, insulin 0.02 nM): 734 dpm | glucose transport, uptake of 3H-labeled 2-deoxyglucose (leptin 5 nM 16.5 h, insulin 0.05 nM): 798 dpm | glucose transport, uptake of 3H-labeled 2-deoxyglucose (leptin 5 nM 16.5 h, insulin 0.1 nM): 883 dpm | glucose transport, uptake of 3H-labeled 2-deoxyglucose (leptin 5 nM 16.5 h, insulin 0.2 nM): 923 dpm | glucose transport, uptake of 3H-labeled 2-deoxyglucose (leptin 5 nM 16.5 h, insulin 0.5 nM): 1167 dpm | glucose transport, uptake of 3H-labeled 2-deoxyglucose (leptin 5 nM 16.5 h, insulin 1 nM): 1583 dpm | glucose transport, uptake of 3H-labeled 2-deoxyglucose (leptin 5 nM 16.5 h, insulin 2 nM): 2140 dpm | glucose transport, uptake of 3H-labeled 2-deoxyglucose (leptin 5 nM 16.5 h, insulin 5 nM): 2950 dpm | glucose transport, uptake of 3H-labeled 2-deoxyglucose (leptin 5 nM 16.5 h, insulin 10 nM): 3682 dpm | glucose transport, uptake of 3H-labeled 2-deoxyglucose (leptin 5 nM 16.5 h, insulin 50 nM): 4031 dpm | glucose transport, uptake of 3H-labeled 2-deoxyglucose (leptin 5 nM 16.5 h, no insulin (basal)): 712 dpm | Glucose Transport, stimulation factor for insulin (stimulated/basal) (leptin 10 nM 15 h): 3.5 | glucose transport, uptake of 3H-labeled 2-deoxyglucose (leptin 10 nM 16.5 h, insulin 0.02 nM): 773 dpm | glucose transport, uptake of 3H-labeled 2-deoxyglucose (leptin 10 nM 16.5 h, insulin 0.05 nM): 802 dpm | glucose transport, uptake of 3H-labeled 2-deoxyglucose (leptin 10 nM 16.5 h, insulin 0.1 nM): 856 dpm | glucose transport, uptake of 3H-labeled 2-deoxyglucose (leptin 10 nM 16.5 h, insulin 0.2 nM): 941 dpm | glucose transport, uptake of 3H-labeled 2-deoxyglucose (leptin 10 nM 16.5 h, insulin 0.5 nM): 1209 dpm | glucose transport, uptake of 3H-labeled 2-deoxyglucose (leptin 10 nM 16.5 h, insulin 1 nM): 1573 dpm | glucose transport, uptake of 3H-labeled 2-deoxyglucose (leptin 10 nM 16.5 h, insulin 2 nM): 2061 dpm | glucose transport, uptake of 3H-labeled 2-deoxyglucose (leptin 10 nM 16.5 h, insulin 5 nM): 2476 dpm | glucose transport, uptake of 3H-labeled 2-deoxyglucose (leptin 10 nM 16.5 h, insulin 10 nM): 2710 dpm | glucose transport, uptake of 3H-labeled 2-deoxyglucose (leptin 10 nM 16.5 h, insulin 50 nM): 2967 dpm | glucose transport, uptake of 3H-labeled 2-deoxyglucose (leptin 10 nM 16.5 h, no insulin (basal)): 755 dpm | Glucose Transport, stimulation factor for insulin (stimulated/basal) (leptin 30 nM 15 h): 2.35 | glucose transport, uptake of 3H-labeled 2-deoxyglucose (leptin 30 nM 16.5 h, insulin 0.02 nM): 704 dpm | glucose transport, uptake of 3H-labeled 2-deoxyglucose (leptin 30 nM 16.5 h, insulin 0.05 nM): 745 dpm | glucose transport, uptake of 3H-labeled 2-deoxyglucose (leptin 30 nM 16.5 h, insulin 0.1 nM): 789 dpm | glucose transport, uptake of 3H-labeled 2-deoxyglucose (leptin 30 nM 16.5 h, insulin 0.2 nM): 852 dpm | glucose transport, uptake of 3H-labeled 2-deoxyglucose (leptin 30 nM 16.5 h, insulin 0.5 nM): 943 dpm | glucose transport, uptake of 3H-labeled 2-deoxyglucose (leptin 30 nM 16.5 h, insulin 1 nM): 1183 dpm | glucose transport, uptake of 3H-labeled 2-deoxyglucose (leptin 30 nM 16.5 h, insulin 2 nM): 1374 dpm | glucose transport, uptake of 3H-labeled 2-deoxyglucose (leptin 30 nM 16.5 h, insulin 5 nM): 1782 dpm | glucose transport, uptake of 3H-labeled 2-deoxyglucose (leptin 30 nM 16.5 h, insulin 10 nM): 1972 dpm | glucose transport, uptake of 3H-labeled 2-deoxyglucose (leptin 30 nM 16.5 h, insulin 50 nM): 2114 dpm | glucose transport, uptake of 3H-labeled 2-deoxyglucose (leptin 30 nM 16.5 h, no insulin (basal)): 688 dpm | Glucose Transport, stimulation factor for insulin (stimulated/basal) (leptin 100 nM 15 h): 1.5 | glucose transport, uptake of 3H-labeled 2-deoxyglucose (leptin 100 nM 16.5 h, insulin 0.02 nM): 766 dpm | glucose transport, uptake of 3H-labeled 2-deoxyglucose (leptin 100 nM 16.5 h, insulin 0.05 nM): 780 dpm | glucose transport, uptake of 3H-labeled 2-deoxyglucose (leptin 100 nM 16.5 h, insulin 0.1 nM): 803 dpm | glucose transport, uptake of 3H-labeled 2-deoxyglucose (leptin 100 nM 16.5 h, insulin 0.2 nM): 813 dpm | glucose transport, uptake of 3H-labeled 2-deoxyglucose (leptin 100 nM 16.5 h, insulin 0.5 nM): 883 dpm | glucose transport, uptake of 3H-labeled 2-deoxyglucose (leptin 100 nM 16.5 h, insulin 1 nM): 896 dpm | glucose transport, uptake of 3H-labeled 2-deoxyglucose (leptin 100 nM 16.5 h, insulin 2 nM): 1034 dpm | glucose transport, uptake of 3H-labeled 2-deoxyglucose (leptin 100 nM 16.5 h, insulin 5 nM): 1205 dpm | glucose transport, uptake of 3H-labeled 2-deoxyglucose (leptin 100 nM 16.5 h, insulin 10 nM): 1451 dpm | glucose transport, uptake of 3H-labeled 2-deoxyglucose (leptin 100 nM 16.5 h, insulin 50 nM): 1723 dpm | glucose transport, uptake of 3H-labeled 2-deoxyglucose (leptin 100 nM 16.5 h, no insulin (basal)): 747 dpm | insulin sensitivity of stimulation of glucose transport (leptin, basal values unaffected): drastically reduced
